pEC50: −log10 of the molar value.
Assays:
human NK cell = test: NK cell IFN-γ production in response to immobilized Ig-G and IL-2 stimulation; format: cell-based; details: read-out: EC50, enhancement of NK cell IFN-γ production
Description: Without being bound by a particular theory, Compound A is believed to enhance the human NK cell killing function, antibody-dependent cellular cytotoxicity (ADCC), in rituximab coated lymphoma cell lines.

DoHH2 lymphoma xenograft = DoHH2 lymphoma xenograft model; format: in vivo
Method: (§1) In combination with rituximab, Compound A at 3 and 30 mg/kg induced complete regressions in 60% and 90% of animals, respectively.

[1] = system: WSU-DLCL2 lymphoma xenograft; test: WSU-DLCL2 lymphoma xenograft model; format: in vivo; details: for complete regressions, % of animals: WSU-DLCL2
Method: as §1

[2] = system: follicular lymphoma cell lines (RL and DoHH2); test: 8-day cytotoxicity assay (cell titer glo), follicular lymphoma lines; format: cell-based; details: Compound A 200 nM for 8 days + obinutuzumab (GA101) 0 to 10,000 ng/mL last 24 hours; FL lines
Method: (§2) In vitro combination efficacy studies were performed with Compound A and obinutuzumab (GA101). Two follicular (RL and DoHH2) and two diffuse large B cell lymphoma (DLBCL) (Oci-Ly10, WSU-DLCL2) cell lines were treated with either single agent Compound A (200 nM), single agent obinutuzumab (0 to 10,000 ng/mL) or in combination in 8-day cytotoxicity assays (cell titer glo). In both the single agent and combination studies, the cells were treated with Compound A for 8 days and with obinutuzumab treatment on the last 24 hours in the combination studies.

[3] = system: DLBCL cell lines (Oci-Ly10, WSU-DLCL2); test: 8-day cytotoxicity assay (cell titer glo), DLBCL lines; format: cell-based; details: Compound A 200 nM for 8 days + obinutuzumab (GA101) 0 to 10,000 ng/mL last 24 hours
Method: as §2

[4] = First-in-human study of Compound A, Part A dose escalation; format: in vivo; details: for dose limiting toxicities (DLT) observed: in vivo
Method: (§3) The first-in-human study of Compound A is being conducted in a broad tumor population including diverse solid tumors, lymphoma and MM. Part A of the study used a Compound A starting dose of 0.5 mg QD on a continuous dosing schedule. Using allometric scaling, this dose represented a dose ˜20-fold below the highest non-severely toxic dose (HNSTD) in primates based on preclinical toxicology studies. Part A dose escalation proceeded in 0.5 mg increments (0.5, 1.0, 1.5, 2.0, 2.5, 3.0, 3.5 mg) and established the nontolerated dose (NTD) at 3.5 mg QD and the MTD at 3.0 mg QD. […] In Part B, parallel expansion cohorts (14 to 20 subjects each) in 4 tumor indications (MM, NHL, HCC and gliomas) were subsequently enrolled at a dose of 3.0 mg QD. Given that subjects with CLL may be more sensitive to the side effects of immunomodulatory agents (IMiDs®) and other cereblon-binding agents, and the clinical safety, PK and pharmacodynamics data observed with Compound A to date, a lower Compound A starting dose of 0.25 mg QD was used in a CLL population.

[5] = in vivo
Method: as §3

[6] = system: panel of lymphoma and MM cell lines; test: Immunomodulatory and anti-proliferative activity against a panel of cell lines; format: cell-based
Method: (§4) A second consideration for the starting dose of Compound A is based on the relative in vitro potency between Compound A and lenalidomide and the relative human safety and tolerability of lenalidomide in CLL. […] Clinical exploration of lenalidomide in CLL has established 5 mg to be a tolerable starting dose.

human CLL cells = test: Primary cultures of human CLL cells; format: cell-based; details: in 70% of samples tested
Method: as §4

TNF-α = test: Cytokine inhibition in LPS-stimulated hPBMC and human whole blood: TNF-α; format: cell-based
Description: (§5) TNF-α is an inflammatory cytokine produced by macrophages and monocytes during acute inflammation. TNF-α is responsible for a diverse range of signaling events within cells. TNF-α may play a pathological role in cancer. Without being limited by theory, one of the biological effects exerted by Compound A is the reduction of synthesis of TNF-α. Compound A enhances the degradation of TNF-α mRNA.

IL-1β = test: Cytokine inhibition in LPS-stimulated hPBMC and human whole blood: IL-1β; format: cell-based
Description: as §5

IL-10 = test: Cytokine stimulation in LPS-stimulated hPBMC and human whole blood: IL-10; format: cell-based
Description: as §5

T cells = test: T cell co-stimulation; format: cell-based; details: under appropriate conditions
DLBCL cell lines = details: lenalidomide with ibrutinib (Yang, 2012); cited from earlier work
[7] = cited from earlier work
[8] = continuous dosing, solid tumors, lymphoma and MM

**Q.** With `Cc1nc2cccc(N)c2c(=O)n1C1CCC(=O)NC1=O` (centres unmarked) [Compound A, 3-(5-amino-2-methyl-4-oxo-4H-quinazolin-3-yl)-piperidine-2,6-dione] as the molecule, how does the pEC50 (human NK cell) read?
**A.** 8.82

**Q.** And the “tumor growth inhibition, single agent” value (DoHH2 lymphoma xenograft; Compound A single agent at 3 and 30 mg/kg)?
**A.** modest dose-dependent tumor growth inhibition

**Q.** What about the “tumor growth delay, combination with rituximab” value (DoHH2 lymphoma xenograft; in combination with rituximab) of the same molecule?
**A.** significantly and dose-dependently delayed tumor growth

**Q.** And the “complete regressions, % of animals” value ([1]; Compound A 3 mg/kg in combination with rituximab)?
**A.** 60%

**Q.** What about the “complete regressions, % of animals” value ([1]; Compound A 30 mg/kg in combination with rituximab) of the same molecule?
**A.** 90%

**Q.** What about the “effect as single agent” value ([1]; WSU-DLCL2 study, Compound A single agent) of the same molecule?
**A.** minimal effects

**Q.** What about the “tumor growth inhibition, administered with rituximab” value ([1]; WSU-DLCL2 xenograft, administered with rituximab) of the same molecule?
**A.** dose-dependent tumor growth inhibition

**Q.** And the “combination effect on cytotoxicity” value [2]?
**A.** synergistic

**Q.** What about the “combination effect on cytotoxicity” value [3] of the same molecule?
**A.** additive

**Q.** And the MTD [4, 8]?
**A.** 3.0 mg QD

**Q.** What about the “nontolerated dose (NTD)” value [4, 8] of the same molecule?
**A.** 3.5 mg QD

**Q.** And the “dose limiting toxicities (DLT) observed” value ([4]; human)?
**A.** Grade 3 fever and fatigue and Grade 3 muscle weakness

**Q.** What about the “dose limiting toxicities (DLT) observed” value [4] of the same molecule?
**A.** No DLTs

**Q.** And the “starting dose relative to highest non-severely toxic dose (HNSTD) in primates, fold below” value [5]?
**A.** ~20 fold

**Q.** What about the “potency relative to lenalidomide, immunomodulatory and anti-proliferative activity” value [6] of the same molecule?
**A.** ~10 fold

**Q.** What about the “potency relative to lenalidomide” value (human CLL cells) of the same molecule?
**A.** ~5 fold

**Q.** What about the “inhibition of TNF-α” value (TNF-α) of the same molecule?
**A.** markedly inhibits

**Q.** What about the “inhibition of IL-1β” value (IL-1β) of the same molecule?
**A.** potently inhibits

**Q.** And the “effect on IL-10” value (IL-10)?
**A.** stimulates

**Q.** What about the “T cell co-stimulation, cell proliferation” value (T cells) of the same molecule?
**A.** increased cell proliferation in a dose dependent manner

**Q.** With `C=CC(=O)N1CCC[C@@H](n2nc(-c3ccc(Oc4ccccc4)cc3)c3c(N)ncnc32)C1` [ibrutinib] as the molecule, how does the “combination effect of lenalidomide and ibrutinib on killing of DLBCL cell lines” value (DLBCL cell lines) read?
**A.** synergistically kill

**Q.** For `Nc1cccc2c1CN(C1CCC(=O)NC1=O)C2=O` (centres unmarked) [lenalidomide], which “combination effect of lenalidomide and ibrutinib on killing of DLBCL cell lines” value (DLBCL cell lines) is on record?
**A.** synergistically kill

**Q.** And the “effect of intermittent dosing schedule in CLL” value ([7]; 21 of 28 day cycles, during the 7 day drug holidays (Chen, 2011))?
**A.** rebound lymphocytosis

**Q.** And the “tolerable starting dose in CLL” value ([7]; CLL patients)?
**A.** 5 mg

**Q.** Which results are given for “GA101: humanized type II monoclonal antibody that binds to CD20 and triggers destruction of B-cells”?
**A.** combination effect on cytotoxicity [2]: synergistic; combination effect on cytotoxicity [3]: additive
